Values quoted from earlier work as cited in US20100125094A1, “PY[…] NICOTINIC ACETYLCHOLINE RECEPTORS” (AUSPEX PHARMACEUTICALS, INC., priority 2008, published 2010).

CN1CCCC1c1cccnc1 (centres unmarked) [Nicotine, 3-(1-methyl-pyrrolidin-2-yl)-pyridine]
half life of nicotine in the body (in the body): around two
time for nicotine to reach the brain (when inhaled, on average): about seven
